Data from patent publication US7671181B2, “Polynucleotides encoding coccidian parasite casein kinase I, a chemotherapeutic target for antiprotozoal agents” (Merck Sharp & Dohme Corp., priority 2004, dated 2010).
pIC50: −log10 of the molar value.

How the values were obtained:
[1] = target: TgCKIα (Toxoplasma gondii, UniProt Q6QNM1); experiment: Casein kinase assay, TgCKIα (recombinant FLAGTgCKIα or partially purified native); type: biochemical; set-up: Km(app), native TgCKIα; other: substrate titration, 2 μM ATP; IC50, nativeTgCKIα; other: partially purified native enzyme from Toxoplasma tachyzoites; sensitivity of native TgCKIα phosphopeptide kinase activity (HiTrapQ fractions 5-9); other: 0.2 μM hymenialdisine or 1; settings: 0.2 μM hymenialdisine or 1 μM purvalanol B
Experimental: Protein kinase assays—Casein kinase activity was assayed essentially as described (Donald, R. G. K. et al., 2002, supra) using 96-well phosphocellulose plates (MAPH-NOB, Millipore; Billerica, Mass.) to capture ^33P-phosphorylated peptide or casein substrates. Kinase reactions were carried out in 40 μl volumes containing 25 mM Hepes, pH 7.4, 10 mM MgCl2, 20 mM β-glycerophosphate, 1 mM DTT, 250 μM substrate, 1 mg/mL BSA, 2 μM ATP, and 0.01 μM [γ-^33P]ATP (Perkin-Elmer, 3000 Ci/mmol). […] Casein (5% solution), partially dephosphorylated α-casein and β-casein were obtained from Sigma.
A variety of commercially available peptide substrates were evaluated. From Calbiochem (San Diego, Calif.): CKI substrate (RRKDLHDDEEDEAMSITA; SEQ ID NO:13); CKII substrate (RRADDSDDDDD; SEQ ID NO:14); Syntide-2 substrate (PLARTLSVAGLPGKK; SEQ ID NO:15); CaM kinase II substrate (281-291) (MHKNETVECLK; SEQ ID NO:16). From Promega: CKI substrate (DDDEESITRR; SEQ ID NO:17) and kemptide (LRRASLG; SEQ ID NO:18). From New England Biolabs (Beverly, Mass.): CKI phosphopeptide substrate (KRRRALS(p)VASLPGL; SEQ ID NO:19), and CKII substrate (RRREEETEEE; SEQ ID NO:20). PKG assays were performed with kemptide as substrate and 10 μM cGMP. CDPK was assayed with Syntide-2 substrate and in the presence of 100 μM CaCl2.
Purification of recombinant CKI enzymes—E. coli strain BL21 Origami™ (Novagen) was transformed with FLAGTgCKIα and FLAGTgCKIβ expression vectors, and colonies were expanded into 250 mL LB cultures grown at 37° C. Expression was induced with 1 mM IPTG once cultures had reached an OD600nm of 0.3-0.5, and the transformed bacteria were harvested 4-6 hours later. Cell pellets were resuspended in 15 mL of lysis buffer containing protease inhibitors and lysates prepared as described by the supplier (Bugbuster™ reagents, Novagen). The concentration of NaCl in the lysate was adjusted to 0.5 M, and 0.5 mL of FLAG-agarose beads were added (Sigma). The mixture was allowed to rock in a Nutator mixer (Becton-Dickinson; San Jose, Calif.) for 2 hours at 4° C. The slurry was then poured into an empty column and the matrix washed with 50 mL of wash buffer (50 mM Tris-HCl, pH 7.4, 0.5M NaCl, 10% glycerol, 1 mM DTT, 1 mM EDTA). […] Protein was measured with a micro-BCA reagent (Pierce) following a TCA-sodium deoxycholate step to remove residual FLAG peptide (Brown et al., 1989, Anal. Biochem. 180:136-139). […]
Preparations of FLAGTgCKIα and FLAGTgCKIβ were purified further on a SMART system FPLC 0.1 mL MonoQ anion exchange column (Pharmacia; New York, N.Y.) equilibrated in buffer A (50 mM Hepes, pH 7.4, 10% glycerol, 1 mM DTT) at room temperature. […] A linear salt gradient was applied (0-500 mM in 3 mL at 100 μl/min) and 100 μl fractions were collected and analyzed by SDS-PAGE and for CKI activity. […]

[2] = tested on: T. gondii tachyzoites; experiment: [3H]-uracil uptake assay of parasite growth inhibition in infected HFF cell monolayers; type: cell-based, Toxoplasma gondii; settings: infected HFF cell monolayers, 36-48 hours; read-out: IC50 against T. gondii in the uracil uptake assay
Source text: Host cells and parasite cultures—RH strain or RH ΔHXGPRT strain tachyzoites of T. gondii were maintained by serial passage in confluent monolayers of human foreskin fibroblasts (“HFF”) as described (Roos, D. S. et al., 1994, Methods Cell Biol. 45:27-63). A modified [^3H]-uracil uptake assay (Pfefferkorn, E. R. and Pfefferkorn, L. C., 1977, J. Protozool. 24:449-453) adapted for use in 96-well scintillation plates (Cytostar-T, Amersham; Piscataway, N.J.) was used to measure parasite growth inhibition. Each well, previously seeded with HFF cells, was inoculated with T. gondii tachyzoites (2×10^4) in 200 μl of growth media containing 2 μCi [5,6]-^3H-uracil (Perkin-Elmer NEN; Boston, Mass.) and serially diluted compound. Following incubation at 37° C. for 36-48 hours, tritium-incorporation into host cell monolayers was directly counted in a microplate scintillation counter (MicroBeta, PerkinElmer-Wallac).

Chain of TgCKIα (Q6QNM1 whole entry, looked up): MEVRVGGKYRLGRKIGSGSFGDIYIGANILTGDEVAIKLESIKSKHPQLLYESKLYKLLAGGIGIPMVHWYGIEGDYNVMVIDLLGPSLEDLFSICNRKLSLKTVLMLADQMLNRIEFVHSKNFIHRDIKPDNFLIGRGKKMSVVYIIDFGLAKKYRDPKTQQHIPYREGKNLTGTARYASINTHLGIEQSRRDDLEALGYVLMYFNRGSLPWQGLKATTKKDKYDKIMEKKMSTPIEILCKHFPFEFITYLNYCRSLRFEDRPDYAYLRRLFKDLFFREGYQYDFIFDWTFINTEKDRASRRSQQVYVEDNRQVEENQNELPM

`CC(C)[C@H](CO)Nc1nc(Nc2ccc(C(=O)O)c(Cl)c2)c2ncn(C(C)C)c2n1` [purvalanol B] was tested, and the “sensitivity of native TgCKIα phosphopeptide kinase activity (HiTrapQ fractions 5-9)” value [1] was “sensitive” and the pIC50 [2] was 6.59.
